Read-outs that look alike come from different tables or passages of the source.
Test: Single dose PK in healthy subjects (Cohorts 1, 2, S1 and S2), plasma
Format: in vivo, human
Conditions: human, plasma, intravenous
Experimental: This study investigates (i) the safety and tolerability of Compound A (methyl (2R,3S)-3-((methylsulfonyl)amino)-2-(((cis-4-phenylcyclohexyl)oxy)methyl)piperidine-1-carboxylate) when a single dose given as a 9 hour continuous IV infusion is administered to healthy adults, healthy elderly subjects and patients with narcolepsy type 1 (NT1); (ii) the pharmacokinetics of Compound A when a single dose given as a 9 hour continuous IV infusion is administered to healthy adults, healthy elderly subjects and patients with narcolepsy type 1; and (iii) the pharmacodynamics (PD) effects of Compound A, primarily by evaluation of the sleep latency on MWT when a single dose given as a 9 hour continuous IV infusion is administered to patients with narcolepsy type 1.
Pharmacokinetics: Concentrations of Compound A in plasma, and CSF, and pharmacokinetics parameters.
On average, the time to reach the plateau appeared to be approximately 3 to 4 hours after the start of infusion. […] After switching off the IV infusion, Compound A plasma concentrations declined rapidly and in a biphasic manner with a mean terminal disposition phase t1/2z ranging approximately from 3.4 to 5.1 hours across all doses. […] Table 5 provides a summary of plasma concentrations of Compound A after a single IV infusion in healthy subjects. Table 6 provides a summary of pharmacokinetic parameters of Compound A after a single IV infusion in healthy subjects.

[1] = 28 mg, read-out: Plasma concentration, Minimum
[2] = 28 mg, read-out: Plasma concentration, Q1
[3] = 28 mg, read-out: Plasma concentration, Q3
[4] = 28 mg, read-out: Plasma concentration, Maximum
[5] = 28 mg, read-out: Plasma concentration, Mean
[6] = 28 mg, read-out: Plasma concentration, Median
[7] = 56 mg, read-out: Plasma concentration, Maximum
[8] = 56 mg, read-out: Plasma concentration, Mean
[9] = 56 mg, read-out: Plasma concentration, Median
[10] = 56 mg, read-out: Plasma concentration, Minimum
[11] = 56 mg, read-out: Plasma concentration, Q1
[12] = 56 mg, read-out: Plasma concentration, Q3
[13] = 112 mg, read-out: Plasma concentration, Maximum
[14] = 112 mg, read-out: Plasma concentration, Mean
[15] = 112 mg, read-out: Plasma concentration, Median
[16] = 112 mg, read-out: Plasma concentration, Minimum
[17] = 112 mg, read-out: Plasma concentration, Q1
[18] = 112 mg, read-out: Plasma concentration, Q3

## COC(=O)N1CCC[C@H](NS(C)(=O)=O)[C@@H]1CO[C@H]1CC[C@@H](c2ccccc2)CC1 [Compound A, methyl (2R,3S)-3-((methylsulfonyl)amino)-2-(((cis-4-phenylcyclohexyl)oxy)methyl)piperidine-1-carboxylate]
[1]
  concentration at 2 hr: 33.7 ng/mL
  concentration at 3 hr: 35.6 ng/mL
  concentration at 4 hr: 44.4 ng/mL
  concentration at 6 hr: 40.2 ng/mL
  concentration at 8 hr: 37.1 ng/mL
  concentration at 9 hr: 40.6 ng/mL
[2]
  concentration at 2 hr: 45.5 ng/mL
  concentration at 3 hr: 51.3 ng/mL
  concentration at 4 hr: 54.2 ng/mL
  concentration at 6 hr: 45.4 ng/mL
  concentration at 8 hr: 43.3 ng/mL
  concentration at 9 hr: 51 ng/mL
[3]
  concentration at 2 h: 57.8 ng/mL
  concentration at 3 h: 63.7 ng/mL
  concentration at 4 hr: 58.8 ng/mL
  concentration at 6 hr: 48.8 ng/mL
  concentration at 8 hr: 52.5 ng/mL
  concentration at 9 hr: 57.4 ng/mL
[4]
  concentration at 3 h: 65.2 ng/mL
  concentration at 4 hr: 63.1 ng/mL
  concentration at 6 hr: 51.7 ng/mL
  concentration at 8 hr: 58.8 ng/mL
  concentration at 9 hr: 58.3 ng/mL
[5]
  concentration at 3 hr: 55 ng/mL
  concentration at 4 h: 55 ng/mL
  concentration at 6 hr: 46.8 ng/mL
  concentration at 8 hr: 48.7 ng/mL
  concentration at 9 hr: 52.5 ng/mL
[6]
  concentration at 3 h: 59.3 ng/mL
  concentration at 4 hr: 54.5 ng/mL
  concentration at 6 hr: 48 ng/mL
  concentration at 8 hr: 51.7 ng/mL
  concentration at 9 hr: 55.3 ng/mL
[7]
  concentration at 0.5 h: 80.3 ng/mL
  concentration at 1 h: 91.5 ng/mL
  concentration at 1.5 h: 116 ng/mL
  concentration at 2 h: 114 ng/mL
  concentration at 3 h: 133 ng/mL
  concentration at 4 h: 144 ng/mL
  concentration at 6 h: 119 ng/mL
  concentration at 8 h: 133 ng/mL
  concentration at 9 h: 138 ng/mL
[8]
  concentration at 0.5 h: 71.2 ng/mL
  concentration at 1 h: 81.2 ng/mL
  concentration at 1.5 h: 92.8 ng/mL
  concentration at 2 h: 99.5 ng/mL
  concentration at 3 h: 114 ng/mL
  concentration at 4 hr: 118 ng/mL
  concentration at 6 hr: 91.8 ng/mL
  concentration at 8 hr: 102 ng/mL
  concentration at 9 hr: 115 ng/mL
[9]
  concentration at 0.5 h: 70.7 ng/mL
  concentration at 1 h: 79 ng/mL
  concentration at 1.5 h: 90.2 ng/mL
  concentration at 2 h: 99 ng/mL
  concentration at 3 h: 112 ng/mL
  concentration at 4 h: 113 ng/mL
  concentration at 6 h: 90.8 ng/mL
  concentration at 8 h: 99.7 ng/mL
  concentration at 9 h: 112 ng/mL
[10]
  concentration at 0.5 h: 64.4 ng/mL
  concentration at 1 h: 74.8 ng/mL
  concentration at 1.5 h: 75.5 ng/mL
  concentration at 2 h: 86.5 ng/mL
  concentration at 3 h: 98.3 ng/mL
  concentration at 4 hr: 107 ng/mL
  concentration at 6 hr: 73.5 ng/mL
  concentration at 8 hr: 84.9 ng/mL
  concentration at 9 hr: 102 ng/mL
[11]
  concentration at 0.5 h: 65 ng/mL
  concentration at 1 h: 76.2 ng/mL
  concentration at 1.5 h: 88.8 ng/mL
  concentration at 2 h: 88.8 ng/mL
  concentration at 3 h: 98.6 ng/mL
  concentration at 4 hr: 109 ng/mL
  concentration at 6 h: 73.8 ng/mL
  concentration at 8 h: 87.2 ng/mL
  concentration at 9 h: 104 ng/mL
[12]
  concentration at 0.5 h: 75.9 ng/mL
  concentration at 1 h: 86.3 ng/mL
  concentration at 1.5 h: 96.1 ng/mL
  concentration at 2 h: 110 ng/mL
  concentration at 3 h: 131 ng/mL
  concentration at 4 h: 120 ng/mL
  concentration at 6 h: 103 ng/mL
  concentration at 8 h: 108 ng/mL
  concentration at 9 h: 122 ng/mL
[13]
  concentration at 0.5 h: 174 ng/mL
  concentration at 1 h: 172 ng/mL
  concentration at 1.5 h: 255 ng/mL
[14]
  concentration at 0.5 h: 132 ng/mL
  concentration at 1 h: 154 ng/mL
  concentration at 1.5 h: 194 ng/mL
[15]
  concentration at 0.5 h: 122 ng/mL
  concentration at 1 h: 162 ng/mL
[16]
  concentration at 0.5 h: 108 ng/mL
  concentration at 1 h: 126 ng/mL
[17]
  concentration at 0.5 h: 119 ng/mL
  concentration at 1 h: 131 ng/mL
[18]
  concentration at 0.5 h: 149 ng/mL
  concentration at 1 h: 169 ng/mL

From patent US20220339143A1, “TAK-925 FOR USE IN TREATING NARCOLEPSY” (Takeda Pharmaceutical Company Limited, priority 2019, published 2022)
